Measured values from patent US20050267169A1, “Watersoluble prodrugs of propofol” (priority 2002, published 2005).
≈ marks a conversion by molar mass, not a printed value. Where a name gives a salt, the structure may show the parent alone. Marks after values point to notes of the source that are not given here.

Key:
righting reflex = assay: Anesthetic activity: loss of righting reflex; type: in vivo, rat; conditions: rats, i.p.; propofol and Diprivan 60 mg/kg, 6a 105 mg/kg (equimolar); mean ± s.e.m.
Method: The loss and reestablishment of righting responses, time of anesthesia induction, and sleeping time were also assessed. Rats (five per group) were treated with propofol and Diprivan®, both at a dose of 60 mg/kg, and an equimolar dose of compound 6a (105 mg/kg) and were continuously monitored for the loss of righting reflex (onset and duration). Propofol and its derivative 6a were dissolved in saline with a drop of Tween 80 per 5 mL and administered intraperitoneally in a volume of 0.3 mL per 100 g of body mass. Anesthesia induction (sleep onset) was defined as the time from drug administration to loss of righting reflex, whereas the sleeping time was the time from the loss of the righting reflex until the animals were plantigrade on all four legs. The significance of differences in behavioral data were analyzed by the ANOVA test.

[1] = Solubility in deionized water at 25° C.; type: physicochemical; conditions: 72 h equilibration; for solubility at 72 h: thermodynamic from solid, read-out: Solubility (mg/mL) in deionized water
Method: The resulting mixture was vortexed for 10 min and then mechanically shaken in a thermostatic bath shaker (100 rpm) for 72 h to attain equilibrium. Next, the mixture was filtered through a 0.45 μm membrane filter (Millipore®, cellulose acetate) and an aliquot was diluted with an appropriate amount of water and analyzed for the aminoacid ester prodrug content spectrophotometrically at 210 nm. All of the manipulations were made without removal of the test tubes from the water bath, using thermostated pipettes, syringes, and buffer solutions. In Table II, as shown below, solubility data is compared with the data previously determined for propofol derivatives 2a-c (Trapani G. Latrofa A, Franco M, Lopedota A, Maciocco E, Liso G. 1998. Water-soluble salts of amino acid esters of the anesthetic agent propofol. Int. J. Pharm. 175: 195-204.).

GABAA receptor = assay: In vitro [35S]TBPS binding assay, unwashed rat cortical membranes; conditions: for IC50: unwashed rat brain (cortical) membranes
Method: The data is expressed as a percentage of binding measured in the presence of solvent and are means of two experiments.
Rats were killed by decapitation and their brains rapidly removed on ice. The cerebral cortex was dissected out and homogenized in 50 volumes of ice-cold 50 mM Tris-citrate buffer (pH 7.4 at 25° C.) containing 100 mM CaCl2 using a Polytron PT 10 (setting 5, for 20 sec) and centrifuged at 20.000×g for 20 min. The resulting pellet was resuspended in 50 volumes of 50 mM Tris-citrate buffer (pH 7.4 at 25° C.) and used for the assay. [^35S]TBPS binding was determined in a final volume of 500 μL consisting of. 200 μL of tissue homogenate (0.20-0.25 mg protein), 50 μL of [^35S]TBPS (final assay concentration of 1 nM), 50 μl 2 M NaCl, 50 μL of drugs or solvent and buffer to volume. Incubations (25° C.) were initiated by addition of tissue and terminated 90 min later by a rapid filtration through glass-fiber filter strips (Whatman GF/B, Clifton, N.J.), which were rinsed twice with a 4 mL portion of ice-cold Tris-citrate buffer using a Cell Harvester filtration manifold (model M-24m Brandel, Gaithersburg, Md.). Filter bound radioactivity was quantitated by liquid scintillation spectrometry. […] Protein content was determined by the method of Lowry^20 using bovine serum albumin as a standard.

[2] = tested on: pentylenetetrazole-induced seizures; assay: Anticonvulsant activity against pentylenetetrazole-induced seizures; type: in vivo, rat; conditions: for Anticonvulsant activity, No. of rats protected/tested: pentylenetetrazole 55 mg/kg i.p.
Method: The anticonvulsant activity against pentylenetetrazole-induced seizures (55 mg/kg) was measured.

[3] = Chemical hydrolysis in 0.05 M phosphate buffers at 37° C.; type: physicochemical; conditions: phosphate buffer, pH 7.4, 0.05 M phosphate buffer pH 7.4, 37° C.; for half-life: read-out: Half-lives at 37° C., pH 7.4 buffer (converted)
Method: The hydrolysis of the propofol esters 6a-d was studied in aqueous buffer solutions (0.05 M phosphate buffers; ionic strength of 0.5 maintained by adding a calculated amount of KCl) at pH values of 4, 6, and 7.4 and temperature of 37±0.2° C. The reactions were initiated by adding 100 μl of a stock solution of the ester (13 mg/mL methanol) to 20 mL of the buffer solution preheated at 37° C., in screw-capped test tubes (final concentration about 2.0×10^−4 M). The solutions were kept in a water bath at a constant temperature, and at appropriate intervals aliquots of 20 μL were withdrawn and analyzed by HPLC. Pseudo-first-order rate constants for the hydrolysis were determined from the slopes of linear plots of the logarithm of residual propofol ester against time.
The kinetics of hydrolysis of the derivatives 6a-d were determined in 0.05 M phosphate buffers at pHs 4.0, 6.0 and 7.4 at 37° C. as well as in rat serum solution and in the presence of porcine liver esterase.

porcine liver esterase = assay: Hydrolysis in the presence of porcine liver esterase; type: in vitro ADME; conditions: for half-life: pig, porcine liver esterase, read-out: Half-lives at 37° C., Porcine liver esterase (13 U/mL) (converted); for half-life / Cleaved quantitatively to the parent drug in porcine liver esterase solution: 37° C.
Description: Hydrolysis of compounds 6a-d in the presence of porcine liver esterase was followed using a reported procedure (Bonina F P, Arenare L, Palagiano F, Saija A, Nava F, Trombetta D, De Caprariis P. 1998. Synthesis, stability, and pharmacological evaluation of nipecotic acid prodrugs. J. Pharm. Sci. 8: 561-567.).

[4] = Hydrolysis in phosphate buffer containing 50% rat serum at 37° C.; type: in vitro ADME; conditions: for half-life: 50% rat serum in phosphate buffer, 50% rat serum in pH 7.4 phosphate buffer, read-out: Half-lives at 37° C., 50% rat serum (converted); for Cleaved quantitatively to the parent drug in rat serum: rat serum solution
Method: Each reaction were initiated by adding 100 μL of the methanolic stock solution of compound under examination to 1.6 mL of preheated serum solution (final concentration about 1×10^−3 M) and the mixture was maintained in water bath at 37° C. At appropriate times, 100 μL samples were withdrawn and added to 500 μL of cold acetonitrile in order to deproteinize the serum. After mixing and centrifugation (10 min at 4000 rpm), 20 μL of the clear supematant were filtered through 0.2 μm membrane filter (Waters, PTFE 0.2 μm) and analyzed by HPLC.

[5] = biological target: T1, human α1β2γ2 GABAA receptors (Homo sapiens, UniProt P14867+P18507+P47870); assay: Voltage-clamp electrophysiology in Xenopus laevis oocytes; type: cell-based; conditions: GABA EC20 (2-10 μM); for Effect on GABA-evoked chloride currents: concentration-dependent
T1 construct: expressed in transfected cells; host or cells: Xenopus laevis oocytes (nuclear injection of cDNAs in pCDM8)
Method: Values are expressed as mean (6-13 different oocytes)±s.e.m. percentage of the potentiation of the control response to GABA (EC20, 2-10 μM).
Complementary DNAs encoding the human α1, β2, and γ2 GABAA receptor subunits were subcloned into the pCDM8 expression vector (Invitrogen, San Diego, Calif.). The cDNAs were purified with the Promega Wizard Plus Miniprep DNA Purification System (Madison, Wis.) and then resuspended in sterile distilled water, divided into portions, and stored at −20° C. until used for injection. Stage V and VI oocytes were manually isolated from sections of Xenopus laevis ovary, placed in modified Barth's saline (MBS) containing 88 mM NaCl, 1 mM KCl, 10 mM Hepes-NaOH buffer (pH 7.5), 0.82 mM MgSO4, 2.4 mM NaHCO3, 0.91 mM CaCl2, and 0.33 mM Ca(NO3)2 and treated with 0.5 mg/mL of collagenase Type IA (Sigma) in collagenase buffer (83 mM NaCl, 2 mM KCl, 1 mM MgCl2, 5 mM Hepes-NaOH buffer, pH 7.5) for 10 min at room temperature, to remove the follicular layer. A mixture of GABAA receptor α1, β2, and γ2 subunit cDNAs (1.5 ng/30 nL) was injected into the oocyte nucleus using a 10 μL glass micropipette (10-15 μm tip diameter). The injected oocytes were cultured at 19° C. in sterile MBS supplemented with streptomycin (10 μg/mL), penicillin (10 U/mL), gentamicin (50 μg/mL), 0.5 mM theophylline, and 2 mM sodium pyruvate. Electrophysiological recordings began approximately 24 h following cDNA injection. Oocytes were placed in a 100-μL rectangular chamber and continuously perfused with MBS solution at a flow rate of 2 mL/min at room temperature. The animal pole of oocytes was impaled with two glass electrodes (0.5 to 3 MΩ) filled with filtered 3 M KCl and the voltage was clamped at −70 mV with an Axoclamp 2-B amplifier (Axon Instruments, Burlingame, Calif.). Currents were continuously recorded on a strip-chart recorder. Resting membrane potential usually ranged from −30 to −50 mV. Drugs were perfused for 20 s (7-10 s were required to reach equilibrium in the recording chamber). Intervals of 5 to 10 min were allowed between drug applications.

[6] = propofol 40 mg/kg i.p. or equimolar dose
[7] = unwashed rat cortical membranes

T1 sequence (P14867 28-456): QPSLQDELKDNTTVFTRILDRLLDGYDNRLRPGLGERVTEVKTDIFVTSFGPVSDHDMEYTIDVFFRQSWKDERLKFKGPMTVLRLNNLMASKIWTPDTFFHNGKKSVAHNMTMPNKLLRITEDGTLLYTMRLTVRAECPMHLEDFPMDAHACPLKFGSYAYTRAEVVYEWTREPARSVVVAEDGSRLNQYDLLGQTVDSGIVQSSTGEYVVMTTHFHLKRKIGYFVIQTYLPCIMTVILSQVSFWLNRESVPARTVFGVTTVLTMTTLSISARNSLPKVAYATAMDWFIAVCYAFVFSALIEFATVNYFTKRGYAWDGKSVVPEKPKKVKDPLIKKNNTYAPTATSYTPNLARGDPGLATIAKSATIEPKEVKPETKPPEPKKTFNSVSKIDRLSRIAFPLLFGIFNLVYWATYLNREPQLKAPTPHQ
T1 sequence (P47870 25-512 limits assumed): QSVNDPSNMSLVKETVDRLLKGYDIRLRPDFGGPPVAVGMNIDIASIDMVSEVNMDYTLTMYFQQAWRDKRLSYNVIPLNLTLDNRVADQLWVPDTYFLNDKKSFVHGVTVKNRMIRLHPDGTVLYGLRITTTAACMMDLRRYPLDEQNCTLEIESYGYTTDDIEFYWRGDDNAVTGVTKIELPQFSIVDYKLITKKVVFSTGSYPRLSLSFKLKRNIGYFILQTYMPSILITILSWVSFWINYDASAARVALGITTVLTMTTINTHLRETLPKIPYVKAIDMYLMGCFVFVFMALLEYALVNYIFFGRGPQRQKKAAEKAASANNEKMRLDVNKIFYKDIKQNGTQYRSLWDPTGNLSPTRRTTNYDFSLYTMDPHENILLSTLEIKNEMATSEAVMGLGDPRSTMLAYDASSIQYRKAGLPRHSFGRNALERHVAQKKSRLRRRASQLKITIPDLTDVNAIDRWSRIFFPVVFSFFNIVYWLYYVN
T1 sequence (P18507 40-475): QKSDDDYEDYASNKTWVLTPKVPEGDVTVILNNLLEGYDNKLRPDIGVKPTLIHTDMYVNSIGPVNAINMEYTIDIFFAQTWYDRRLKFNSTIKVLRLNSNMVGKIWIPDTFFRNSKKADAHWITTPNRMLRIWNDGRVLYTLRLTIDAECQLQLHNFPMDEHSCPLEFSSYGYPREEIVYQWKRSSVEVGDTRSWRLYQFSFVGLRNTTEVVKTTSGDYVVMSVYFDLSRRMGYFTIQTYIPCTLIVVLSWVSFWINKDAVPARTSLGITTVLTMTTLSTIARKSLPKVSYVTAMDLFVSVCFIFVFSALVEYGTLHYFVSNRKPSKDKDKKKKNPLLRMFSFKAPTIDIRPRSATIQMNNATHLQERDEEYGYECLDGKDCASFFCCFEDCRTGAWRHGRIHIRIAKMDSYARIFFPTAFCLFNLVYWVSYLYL

| SMILES | Loss of righting reflex, LRR, Duration (righting reflex) | Loss of righting reflex, LRR, Onset (righting reflex) | solubility at 72 h [1] | IC50 (GABAA receptor) | Anticonvulsant activity, No. of rats protected/tested [2, 6] | Protection of animals against pentylenetetrazole-induced convulsions [2, 6] | half-life [3] | half-life (porcine liver esterase; 13 U/mL) | Cleaved quantitatively to the parent drug in porcine liver esterase solution (porcine liver esterase) | half-life [4] | Cleaved quantitatively to the parent drug in rat serum [4] | Concentration of maximal effect on GABA-evoked chloride currents [5] | Effect on GABA-evoked chloride currents [5] | Solubility (mg/mL) in deionized water [1] | Effect on [35S]TBPS binding (GABAA receptor; [7]) | Protection of animals against pentylenetetrazole-induced convulsions ([2]; dose equimolar to 40 mg/kg propofol, i.p.) | Half-lives at 37° C., Porcine liver esterase (13 U/mL) (porcine liver esterase; 13 U/mL) | IC50 (GABAA receptor; hydrochloride) | Doses at which [35S]TBPS binding is reduced (GABAA receptor; [7]) | half-life at 48 h ([3]; read-out: Half-lives at 37° C., pH 7.4 buffer (stability class)) |
| --- | --- | --- | --- | --- | --- | --- | --- | --- | --- | --- | --- | --- | --- | --- | --- | --- | --- | --- | --- | --- |
| CC(C)c1cccc(C(C)C)c1O [Compound 1, 2,6-diisopropylphenol, reference compound] | 2245 ± 252 s | 114.4 ± 9.5 s | ~0.15 mg/mL (≈ 0.841 mM) | 4.17 µM | 10/10 | protected completely | – | – | – | – | – | – | – | – | – | – | – | – | – | – |
| CC(C)c1cccc(C(C)C)c1OC(=O)C1CCCCN1 (racemic) [Compound 6b, propofol pipecolinate] | – | – | 13.4 mg/mL (≈ 46.3 mM) | 39.5 µM | – | – | 7 h | 0.217 h | cleaved quantitatively | 0.0417 h | cleaved quantitatively | – | – | – | – | – | – | – | – | – |
| CC(C)c1cccc(C(C)C)c1OC(=O)C1CCNCC1 [Compound 6d, propofol isonipecotate] | – | – | – | – | 6/10 | – | – | – | not | – | – | 100 µM | diminished | 29.7 mg/mL (≈ 103 mM) | increase of [^35S]TBPS binding | 60% | 45 h | – | – | – |
| CC(C)c1cccc(C(C)C)c1OC(=O)[C@@H]1CCCN1 [Compound 6a, 2.6-diisopropylphenyl pirrolidin-2-carboxylate hydrochloride] | 2403 ± 592 s | 162.7 ± 4.3^c,d sec | 350 mg/mL | – | 10/10 | protected completely | 6 h | 0.283 h | cleaved quantitatively | 0.283 h | cleaved quantitatively | 50 µM | enhanced | – | – | – | – | 31.7 µM | – | – |
| CC(C)c1cccc(C(C)C)c1OC(=O)C1CCCNC1 (racemic) [Compound 6c] | – | – | 525 mg/mL (≈ 1810 mM) | 152 µM | – | – | – | 3 h | not | 6 h | not | – | – | – | – | – | – | – | higher than 100 μM | > 48 h |
